Experiments:
[1] = target: human histamine receptor type 4 (Homo sapiens, UniProt Q9H3N8); experiment: In vitro histamine receptor cell-based assay, H4R antagonist (aequorin bioluminescence); settings: CHO-K1 cells expressing human H4 receptor, aequorin and Gα16; histamine at EC80
Source text: (§1) In Vitro Histamine Receptor Cell-Based Assays
(§2) The assays are based on an aequorin dependent bioluminescence signal, generated by receptor signaling through Gq/11 or a similarly acting G protein and a resulting transient calcium flux. Doubly-transfected, stable CHO-K1 cell lines expressing human histamine receptor type 1 or type 4, mitochondrion-targeted aequorin, and (histamine type 4 receptor only) human G protein Gα16 are obtained from Perkin-Elmer (Histamine H1 cell line, catalog ES-390-A; Histamine H4 cell line, catalog ES-393-A). Cells are maintained on conventional culture plasticware in F12 (Ham's) growth medium containing 10% (vol./vol.) fetal bovine serum, penicillin (100 IU/ml), streptomycin (0.1 mg/ml), zeocin (0.25 mg/ml) and geneticin (0.40 mg/ml), as per the manufacturer's instructions (all components from Invitrogen, Inc.). One day prior to assay, the growth medium is replaced with the same, excluding zeocin and geneticin.
(§3) To prepare cells for a histamine receptor assay, growth medium is aspirated, and the cells are rinsed with calcium-free, magnesium-free phosphate-buffered saline. The rinse is aspirated and replaced with Versene (Invitrogen, Inc.) and the cells incubated for two to three minutes at 37° C., followed by tapping the plate to fully dislodge cells. Assay medium (DMEM:F12 [50:50], phenol-red free, containing 1 mg/ml protease-free bovine serum albumin) is added to collect the cells, which are then transferred to a conical tube for centrifugation. The cell pellet is re-suspended in assay medium, and the cell density is determined by counting with a hemacytometer. The cells are then centrifuged again and re-suspended in assay medium to a final density of 5×10^6 cells/ml. Coelenterazine-h dye (500 μM in ethanol) is then added to a final concentration of 5 μM, and mixed immediately. The conical tube containing the cells is then wrapped with foil to protect the light sensitive dye. The cells are incubated for four hours further at normal room temperature (approximately 21° C.) with vertical rotation to keep them in suspension.
(§4) Just before assay, the dye-loaded cells are diluted to 0.75×10^6 cells/ml (H1 receptor) or 1.5×10^6 cells/ml (H4 receptor) with additional assay medium. Cells are dispensed to 1536 well microtiter plates at 3 μl/well. To assay receptor antagonist activity, […] of 100× concentration test compounds in dimethyl sulfoxide (DMSO) are dispensed to the wells, one compound per well, by passive pin transfer, and the plates are incubated for 15 minutes at room temperature. Assay plates are then transferred to a Lumilux (Perkin-Elmer) bioluminescence plate reader equipped with an automated 1536 well disposable tip pipette. The pipette then dispenses 3 μl/well of agonist (histamine, at twice the final concentration, where final concentration is a previously determined EC80 for response), with concurrent bioluminescence detection.
(§5) CCD imaging capture on the Lumilux instrument includes a 5 second baseline read prior to agonist addition, generally with a 40 second complete read per plate. A decrease in bioluminescence signal (measured either as area-under-the-curve, or maximum signal amplitude minus minimum signal amplitude) correlates with receptor antagonism. Negative control activity is measured with DMSO lacking any test compound. For receptor antagonist assays, positive control activity is measured with diphenhydramine (2-Diphenylmethoxy-N,N-dimethylethylamine, 10 μM final concentration, H1 receptor) or JNJ7777120 (1-[(5-Chloro-1H-indol-2-yl)carbonyl]-4-methyl-piperazine, 10 μM final concentration, H4 receptor). For receptor agonist assays, positive activity is measured with histamine (10 μM final concentration). Efficacy is measured as a percentage of positive control activity.

[2] = target: human histamine receptor type 1 (Homo sapiens, UniProt P35367); experiment: In vitro histamine receptor cell-based assay, H1R antagonist (aequorin bioluminescence); settings: CHO-K1 cells expressing human H1 receptor and aequorin; histamine at EC80
Sequence of human histamine receptor type 1 (P35367 whole entry): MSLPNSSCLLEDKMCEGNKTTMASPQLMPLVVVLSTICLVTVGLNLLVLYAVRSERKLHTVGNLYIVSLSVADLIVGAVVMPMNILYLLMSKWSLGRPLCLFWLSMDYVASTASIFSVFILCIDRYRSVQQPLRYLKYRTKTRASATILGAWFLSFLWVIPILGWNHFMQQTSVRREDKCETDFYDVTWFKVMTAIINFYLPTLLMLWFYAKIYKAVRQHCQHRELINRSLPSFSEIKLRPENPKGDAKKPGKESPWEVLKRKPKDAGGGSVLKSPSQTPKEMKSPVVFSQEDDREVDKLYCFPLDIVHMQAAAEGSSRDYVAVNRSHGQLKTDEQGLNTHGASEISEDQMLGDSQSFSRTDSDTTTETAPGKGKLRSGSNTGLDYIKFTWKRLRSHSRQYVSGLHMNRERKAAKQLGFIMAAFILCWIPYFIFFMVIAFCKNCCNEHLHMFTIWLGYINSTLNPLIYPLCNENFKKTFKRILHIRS
Source text: as §1, §2, §3, §4, §5

Sequence of human histamine receptor type 4 (Q9H3N8 whole entry): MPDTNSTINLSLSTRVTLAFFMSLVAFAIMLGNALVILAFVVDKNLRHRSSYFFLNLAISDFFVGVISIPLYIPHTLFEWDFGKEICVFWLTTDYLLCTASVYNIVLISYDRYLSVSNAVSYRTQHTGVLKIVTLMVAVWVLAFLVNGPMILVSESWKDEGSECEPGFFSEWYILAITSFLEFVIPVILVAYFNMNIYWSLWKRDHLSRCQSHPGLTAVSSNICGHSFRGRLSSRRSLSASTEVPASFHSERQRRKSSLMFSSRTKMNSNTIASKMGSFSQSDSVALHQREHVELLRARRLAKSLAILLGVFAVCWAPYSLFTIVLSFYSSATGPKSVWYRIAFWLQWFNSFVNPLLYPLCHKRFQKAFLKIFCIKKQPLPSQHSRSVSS

Row | Compound | IC50 [1] | IC50 [2]
1 | CCn1c2ccccc2c2cccc(CN3CCN(C)CC3)c21 [Example 33, 9-ethyl-1-((4-methylpiperazin-1-yl)methyl)-9H-carbazole] | 9.64 µM | 19 µM
2 | CCn1c2ccccc2c2cc(CN3CCCC(C(=O)N(C)C)C3)ccc21 (centres unmarked) [Example 20, 1-((9-ethyl-9H-carbazol-3-yl)methyl)-N,N-dimethylpiperidine-3-carboxamide] | 1.1 µM | 3.38 µM
3 | CN(C)CCCn1c2ccccc2c2cc(CN3CCCC(c4ccn[nH]4)C3)ccc21 (centres unmarked) [Example 26, 3-(3-((3-(1H-pyrazol-5-yl)piperidin-1-yl)methyl)-9H-carbazol-9-yl)-N,N-dimethylpropan-1-amine] | 19.8 µM | 21.1 µM
4 | CCn1c2ccccc2c2cc(CN3CCCC(c4ncc[nH]4)C3)ccc21 (centres unmarked) [Example 17, 3-((3-(1H-imidazol-2-yl)piperidin-1-yl)methyl)-9-ethyl-9H-carbazole] | 2.28 µM | 0.53 µM
5 | CCn1c2ccccc2c2cc(CN3CCOCC3)ccc21 [Example 2, 4-((9-Ethyl-9H-carbazol-3-yl)methyl)morpholine] | 2.23 µM | 11.1 µM
6 | CCn1c2c(c3cc(CN4CCCC(c5ccn[nH]5)C4)ccc31)CCCC2 (centres unmarked) [Example 22, 6-((3-(1H-pyrazol-5-yl)piperidin-1-yl)methyl)-9-ethyl-2,3,4,9-tetrahydro-1H-carbazole] | 5.9 µM | 8.72 µM
7 | CCn1c2ccccc2c2cc(CN3CCCC3)ccc21 [Example 8, 9-Ethyl-3-(pyrrolidin-1-ylmethyl)-9H-carbazole] | 8.5 µM | 7.55 µM
8 | CCn1c2ccccc2c2cc(CN3CCCC(C(=O)O)C3)ccc21 (centres unmarked) [Example 11, 1-((9-Ethyl-9H-carbazol-3-yl)methyl)piperidine-3-carboxylic acid] | 6.15 µM | 9.91 µM
9 | CCn1c2ccccc2c2cc(CN3CCNCC3)ccc21 [Example 9, 9-Ethyl-3-(piperazin-1-ylmethyl)-9H-carbazole] | 12.6 µM | 46.4 µM
10 | CN(C)CCCn1c2ccccc2c2cc(CN3CCCC(N)C3)ccc21 (centres unmarked) [Example 28, 1-((9-(3-(dimethylamino)propyl)-9H-carbazol-3-yl)methyl)piperidin-3-amine] | 55.9 µM | > 30 µM
11 | c1ccc2c(c1)[nH]c1ccc(CN3CCCC(c4ccn[nH]4)C3)cc12 (centres unmarked) [Example 15, 3-((3-(1H-pyrazol-5-yl)piperidin-1-yl)methyl)-9H-carbazole] | 52.6 µM | 37.6 µM
12 | CCn1c2ccccc2c2cc(CN3CCCC(c4cn[nH]c4)C3)ccc21 (centres unmarked) [Example 24, 3-((3-(1H-pyrazol-4-yl)piperidin-1-yl)methyl)-9-ethyl-9H-carbazole] | 4.34 µM | 0.57 µM
13 | CCn1c2ccccc2c2cc(CN3CC(C)CC(C)C3)ccc21 (centres unmarked) [Example 4, 3-((3,5-Dimethylpiperidin-1-yl)methyl)-9-ethyl-9H-carbazole] | 9.62 µM | 18.2 µM
14 | CCn1c2ccccc2c2cc(CN3CCCC(c4ccn[nH]4)C3)ccc21 (centres unmarked) [Example 1, 3-((3-(1H-pyrazol-5-yl)piperidin-1-yl)methyl)-9-ethyl-9H-carbazole] | 1.07 µM | 0.54 µM
15 | CCn1c2ccccc2c2cc(CN3CCCC(c4cnc[nH]4)C3)ccc21 (centres unmarked) [Example 21, 3-((3-(1H-Imidazol-5-yl)piperidin-1-yl)methyl)-9-ethyl-9H-carbazolee] | 2.75 µM | 1.35 µM
16 | CCn1c2ccccc2c2cc(CN3CCN(C)CC3)ccc21 [Example 25, 9-ethyl-3-((4-methylpiperazin-1-yl)methyl)-9H-carbazole] | 0.66 µM | 2.58 µM
17 | CCn1c2ccccc2c2cc(CN3CCCC(n4ccnn4)C3)ccc21 (centres unmarked) [Example 18, 3-((3-(1H-1,2,3-triazol-1-yl)piperidin-1-yl)methyl)-9-ethyl-9H-carbazole] | 2.28 µM | 1.72 µM

Row | Compound | IC50 [1] | IC50 [2]
18 | CCn1c2ccccc2c2c(CN3CCCC(c4ccn[nH]4)C3)cccc21 (centres unmarked) [Example 31, 4-((3-(1H-pyrazol-5-yl)piperidin-1-yl)methyl)-9-ethyl-9H-carbazole] | 18.4 µM | 14.8 µM
19 | CCn1c2ccccc2c2cc(CN3CCC(C)CC3)ccc21 [Example 5, 9-Ethyl-3-((4-methylpiperidin-1-yl)methyl)-9H-carbazole] | 8.09 µM | 5.94 µM
20 | CCn1c2ccccc2c2cc(CN3CCCC(CO)C3)ccc21 (centres unmarked) [Example 12, (1-((9-Ethyl-9H-carbazol-3-yl)methyl)piperidin-3-yl)methanol] | 1.46 µM | 3.16 µM
21 | CCn1c2ccccc2c2cc(CN3CCCC(C(=O)NC)C3)ccc21 (centres unmarked) [Example 16, 1-((9-ethyl-9H-carbazol-3-yl)methyl)-N-methylpiperidine-3-carboxamide] | 0.34 µM | 0.95 µM
22 | CCn1c2ccccc2c2ccc(CN3CCN(C)CC3)cc21 [Example 34, 9-ethyl-2-((4-methylpiperazin-1-yl)methyl)-9H-carbazole] | 8.55 µM | 35.4 µM
23 | CN(C)CCCn1c2ccccc2c2cc(CN3CCCC(C(N)=O)C3)ccc21 (centres unmarked) [Example 27, 1-((9-(3-(dimethylamino)propyl)-9H-carbazol-3-yl)methyl)piperidine-3-carboxamide] | > 30 µM | > 30 µM
24 | CCn1c2ccccc2c2ccc(CN3CCCC(c4ccn[nH]4)C3)cc21 (centres unmarked) [Example 29, 2-((3-(1H-pyrazol-5-yl)piperidin-1-yl)methyl)-9-ethyl-9H-carbazole] | 32.1 µM | 6.74 µM
25 | CCn1c2ccccc2c2c(CN3CCN(C)CC3)cccc21 [Example 32, 9-ethyl-4-((4-methylpiperazin-1-yl)methyl)-9H-carbazole] | 21.9 µM | > 30 µM
26 | CCn1c2ccccc2c2cc(CN3CCCC(c4nnc[nH]4)C3)ccc21 (centres unmarked) [Example 19, 3-((3-(4H-1,2,4-Triazol-3-yl)piperidin-1-yl)methyl)-9-ethyl-9H-carbazole] | 0.99 µM | 0.59 µM
27 | CCn1c2ccccc2c2cc(CN3CCCC(c4nnn[nH]4)C3)ccc21 (centres unmarked) [Example 14, 3-((3-(1H-tetrazol-5-yl)piperidin-1-yl)methyl)-9-ethyl-9H-carbazole] | 0.33 µM | 0.69 µM
28 | CCn1c2ccccc2c2cc(CN3CCCC(C)C3)ccc21 (centres unmarked) [Example 6, 9-Ethyl-3-((3-methylpiperidin-1-yl)methyl)-9H-carbazole] | 4.39 µM | 5.97 µM
29 | CCn1c2ccccc2c2cc(CN3CCCC(c4cnn[nH]4)C3)ccc21 (centres unmarked) [Example 23, 3-((3-(1H-1,2,3-triazol-5-yl)piperidin-1-yl)methyl)-9-ethyl-9H-carbazole] | 0.96 µM | 0.09 µM
30 | CCn1c2ccccc2c2cccc(CN3CCCC(c4ccn[nH]4)C3)c21 (centres unmarked) [Example 30, 1-((3-(1H-pyrazol-5-yl)piperidin-1-yl)methyl)-9-ethyl-9H-carbazole] | 37.4 µM | > 100 µM
31 | CCn1c2ccccc2c2cc(CN3CCC(O)CC3)ccc21 [Example 3, 1-((9-Ethyl-9H-carbazol-3-yl)methyl)piperidin-4-ol] | 3.06 µM | 3.12 µM
32 | CCOC(=O)C1CCCN(Cc2ccc3c(c2)c2ccccc2n3CC)C1 (centres unmarked) [Example 7, Ethyl 1-((9-ethyl-9H-carbazol-3-yl)methyl)piperidine-3-carboxylate] | 3.83 µM | 5.57 µM
33 | CCn1c2ccccc2c2cc(CN3CCCC(C#N)C3)ccc21 (centres unmarked) [Example 13, 1-((9-Ethyl-9H-carbazol-3-yl)methyl)piperidine-3-carbonitrile] | 1.03 µM | 2.56 µM
34 | CCn1c2ccccc2c2cc(CN3CCCC(C(N)=O)C3)ccc21 (centres unmarked) [Example 10, 1-((9-Ethyl-9H-carbazol-3-yl)methyl)piperidine-3-carboxamide] | 0.18 µM | 0.68 µM
